Measurements taken from US7829589B2, “Sulfonamide compounds and uses thereof” (Elixir Pharmaceuticals, Inc., priority 2005, dated 2010).

target: GHS-R (Homo sapiens, UniProt Q92847); assay: GHS-R antagonist activity (Ki) in a cell based assay
Outline: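 Transfected COS-7 cells were labelled 24 h with [^3H]-myo-inositol and preincubated 30 min at 37 °C in HEPES buffer pH 7.4 with 10 mM LiCl, optionally with 1 U/ml adenosine deaminase. Compound was applied for 45 min at 37 °C. [^3H]-inositol phosphates were extracted with perchloric acid and isolated by anion-exchange resin.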

Sequence of GHS-R (Q92847 whole entry, species assumed): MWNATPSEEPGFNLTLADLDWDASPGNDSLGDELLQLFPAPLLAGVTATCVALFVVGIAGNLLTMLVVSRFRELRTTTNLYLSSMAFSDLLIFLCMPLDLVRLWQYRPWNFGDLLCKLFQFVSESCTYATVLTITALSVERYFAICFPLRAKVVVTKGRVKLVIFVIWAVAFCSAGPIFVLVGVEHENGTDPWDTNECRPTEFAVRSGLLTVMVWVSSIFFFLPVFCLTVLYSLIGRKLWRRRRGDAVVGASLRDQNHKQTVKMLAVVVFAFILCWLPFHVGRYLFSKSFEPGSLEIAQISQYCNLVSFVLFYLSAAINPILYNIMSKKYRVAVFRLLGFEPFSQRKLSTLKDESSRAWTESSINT

| Ki [nM] | SMILES |
| --- | --- |
| 100 to 500 | CCN(CC)CCS(=O)(=O)N[C@H](CCc1ccccc1)c1nc(-c2ccccn2)no1 [Compound 27, 2-Diethylamino-ethanesulfonic acid [(R)-3-phenyl-1-(3-pyridin-2-yl-[1,2,4]oxadiazol-5-yl)-propyl]-amide] |
| < 100 | CCN(CC)CCCS(=O)(=O)N[C@H](CCc1ccccc1)c1nc(Cc2ccccc2F)no1 [Compound 72, 3-Diethylamino-propane-1-sulfonic acid {(R)-1-[3-(2-fluoro-benzyl)-[1,2,4]oxadiazol-5-yl]-3-phenyl-propyl}-amide] |
| 100 to 500 | CCN(CC)CCCS(=O)(=O)NCc1nc(-c2ccc(OC)cc2)n[nH]1 [Compound 156, 3-Diethylamino-propane-1-sulfonic acid [5-(4-methoxy-phenyl)-2H-[1,2,4]triazol-3-ylmethyl]-amide] |
| < 100 | CCN(CC)CCCS(=O)(=O)N[C@H](CCc1ccccc1)c1nc(Cc2ccccc2Cl)no1 [Compound 114, 3-Diethylamino-propane-1-sulfonic acid {(R)-1-[3-(2-chloro-benzyl)-[1,2,4]oxadiazol-5-yl]-3-phenyl-propy}-amide] |
| ≥ 1000 | CCN(CC)CCS(=O)(=O)N[C@H](CCc1ccccc1)c1nc(-c2cccc(Br)c2)no1 [Compound 76, 2-Diethylamino-ethanesulfonic acid {(R)-1-[3-(3-bromo-phenyl)-[1,2,4]oxadiazol-5-yl]-3-phenyl-propyl}-amide] |
| 100 to 500 | CCN(CC)CCCS(=O)(=O)N[C@H](CCc1ccccc1)c1nc(Cc2ccc(OC)cc2)n[nH]1 [Compound 107, 3-Diethylamino-propane-1-sulfonic acid {(R)-1-[5-(4-methoxy-benzyl)-2H-[1,2,4]triazol-3-yl]-3-phenyl-propyl}-amide] |
| 500 to 1000 | CCN(CC)CCCS(=O)(=O)N[C@H](CCc1ccccc1)c1nc(-c2ccccc2OC)no1 [Compound 16, 3-Diethylamino-propane-1-sulfonic acid {(R)-1-[3-(2-methoxy-phenyl)-[1,2,4]oxadiazol-5-yl]-3-phenyl-propyl}-amide] |

Further lines, the compound ahead of its results:

| SMILES | Ki [nM] |
| --- | --- |
| CCN(CC)CCCS(=O)(=O)N[C@H](C)c1nc(-c2ccc(OC)cc2)no1 [Compound 152, (R)-3-Diethylamino-propane-1-sulfonic acid {1-[3-(4-methoxy-phenyl)-[1,2,4]oxadiazol-5-yl]-ethyl}-amide] | 100 to 500 |
| CCN(CC)CCCS(=O)(=O)N[C@H](CCc1ccccc1)c1nc(Cc2ccccc2C)no1 [Compound 68, 3-Diethylamino-propane-1-sulfonic acid {(R)-1-[3-(2-methyl-benzyl)-[1,2,4]oxadiazol-5-yl]-3-phenyl-propyl}-amide] | < 100 |
| CCN(CC)CCCS(=O)(=O)N[C@H](CCc1ccccc1)c1nc(-c2c(F)cc(F)cc2F)n[nH]1 [Compound 8, 3-Diethylamino-propane-1-sulfonic acid {(R)-3-phenyl-1-[5-(2,4,6-trifluoro-phenyl)-2H-[1,2,4]triazol-3-yl]-propyl}-amide] | < 100 |
| CCN(CC)CCCS(=O)(=O)N[C@H](CCc1ccccc1)c1nc(Cc2ccccn2)no1 [Compound 112, 3-Diethylamino-propane-1-sulfonic acid [(R)-3-phenyl-1-(3-pyridin-2-ylmethyl-[1,2,4]oxadiazol-5-yl)-propyl]-amide] | 100 to 500 |
| CCN(CC)CCCS(=O)(=O)N[C@H](CCc1ccccc1)c1nc(-c2ccc3nccn3c2)n[nH]1 [Compound 134, 3-Diethylamino-propane-1-sulfonic acid {(R)-1-[5-(1H-imidazo[1,2,-a]pyridin-6-yl)-2H-[1,2,4]triazol-3-yl]-3-phenyl-propyl}-amide] | 100 to 500 |
| CCN(CC)CCCS(=O)(=O)N[C@H](CCc1ccccc1)c1nc(-c2ccc(F)cc2)n[nH]1 [Compound 105, 3-Diethylamino-propane-1-sulfonic acid {(R)-1-[5-(4-fluoro-phenyl)-2H-[1,2,4]triazol-3-yl]-3-phenyl-propyl}-amide] | < 100 |
